Laboratory results from patent publication US7008905B2, “Method of combating undesired plant growth on cereals” (BASF Aktiengesellschaft, priority 2000, dated 2006).

Experiments:
Format in all cases: in vivo
Stellaria media = assay: Pre-emergence test, weed control; conditions: 3 weeks after treatment, rating 0-100 (100=death), Table 3
Experimental: (§1) The pre-emergence tests involve spraying a liquid formulation of the compound onto the soil in which the seeds of the plant species mentioned above has recently been sown.
(§2) The soil used in the tests is a prepared horticultural loam. The formulations used in the tests are prepared from solutions of the test compounds in acetone containing 0.4% by weight of an alkylphenol/ethylene oxide condensate available under the trade mark TRITON X-155.
(§3) In these tests untreated sown soil is used as control. The herbicidal effects of the test compounds are assessed visually three weeks after spraying the soil and are recorded an a 0 to 100 scale. A rating 0 indicates growth as untreated control, a rating 100 indicates death. An increase of 10 unit an the linear scale approximates to a 10% increase in the level of effect. The results of the assessment are set out in Tables 1 to 4.

Galium aparine = assay: Pre-emergence test, weed control; conditions: 3 weeks after treatment, rating 0-100 (100=death), Table 3
Experimental: as §1, §2, §3

Matricaria inodora = assay: Pre-emergence test, weed control; conditions: 3 weeks after treatment, rating 0-100 (100=death), Table 3
Experimental: as §1, §2, §3

Setaria viridis = assay: Pre-emergence test, weed control; conditions: 3 weeks after treatment, rating 0-100 (100=death), Table 3
Experimental: as §1, §2, §3

Apera spica-venti = assay: Pre-emergence test, weed control; conditions: 3 weeks after treatment, rating 0-100 (100=death), Table 3
Experimental: as §1, §2, §3

Poa annua = assay: Pre-emergence test, weed control; conditions: 3 weeks after treatment, rating 0-100 (100=death), Table 3
Experimental: as §1, §2, §3

Veronica persica = assay: Pre-emergence test, weed control; conditions: 3 weeks after treatment, rating 0-100 (100=death), Table 3
Experimental: as §1, §2, §3

Alopecurus myosuroides = assay: Pre-emergence test, weed control; conditions: 3 weeks after treatment, rating 0-100 (100=death), Table 3
Experimental: as §1, §2, §3

Lolium perenne = assay: Pre-emergence test, weed control; conditions: 3 weeks after treatment, rating 0-100 (100=death), Table 3
Experimental: as §1, §2, §3

Lamium purpureum = assay: Pre-emergence test, weed control; conditions: 3 weeks after treatment, rating 0-100 (100=death), Table 3
Experimental: as §1, §2, §3

wheat = assay: Pre-emergence test, tolerance in wheat; conditions: in vivo
Experimental: as §1, §2
as §3, with “These acetone solutions are diluted with water and the resulting formulations applied at dosage levels corresponding to 15 g, 30 g, 60 g, 120 g or 240 g of active material per hectare in a volume equivalent to 900 liters per hectare. In” for “In”

VIOAR = assay: Pre-emergence test, weed control; conditions: 3 weeks after treatment, rating 0-100 (100=death), Table 3
Experimental: as §1, §2
as §3, with “These acetone solutions are diluted with water and the resulting formulations applied at dosage levels corresponding to 15 g, 30 g, 60 g, 120 g or 240 g of active material per hectare in a volume equivalent to 900 liters per hectare. In” for “In”

PAPRH = assay: Pre-emergence test, weed control; conditions: 3 weeks after treatment, rating 0-100 (100=death), Table 3
Experimental: as §1, §2
as §3, with “These acetone solutions are diluted with water and the resulting formulations applied at dosage levels corresponding to 15 g, 30 g, 60 g, 120 g or 240 g of active material per hectare in a volume equivalent to 900 liters per hectare. In” for “In”

[1] = test system: Triticum aestivum variety “Kanzler”; assay: Pre-emergence test, selectivity; conditions: 3 weeks after treatment, rating 0-100 (100=death), Table 4
Experimental: as §1, §2
as §3, with “These acetone solutions are diluted with water and the resulting formulations applied at dosage levels corresponding to 15 g, 30 g, 60 g, 120 g or 240 g of active material per hectare in a volume equivalent to 900 liters per hectare. In” for “In”

[2] = test system: Triticum aestivum variety “Monopol”; assay: Pre-emergence test, selectivity; conditions: 3 weeks after treatment, rating 0-100 (100=death), Table 4
Experimental: as §1, §2
as §3, with “These acetone solutions are diluted with water and the resulting formulations applied at dosage levels corresponding to 15 g, 30 g, 60 g, 120 g or 240 g of active material per hectare in a volume equivalent to 900 liters per hectare. In” for “In”

## CSc1cc(Oc2ccnc(Cl)c2)nc(-c2ccc(C(F)(F)F)cc2)n1 [REF-7]
Stellaria media; 0.030 kg/ha
  STEME weed control rating: 25
Stellaria media; 0.060 kg/ha
  STEME weed control rating: 98
Stellaria media; 0.120 kg/ha
  STEME weed control rating: 98
Stellaria media; 0.240 kg/ha
  STEME weed control rating: 100
Galium aparine; 0.120 kg/ha
  GALAP weed control rating: 65
Galium aparine; 0.240 kg/ha
  GALAP weed control rating: 92
Matricaria inodora; 0.030 kg/ha
  MATIN weed control rating: 90
Matricaria inodora; 0.060 kg/ha
  MATIN weed control rating: 100
Matricaria inodora; 0.120 kg/ha
  MATIN weed control rating: 100
Matricaria inodora; 0.240 kg/ha
  MATIN weed control rating: 100
Setaria viridis; 0.030 kg/ha
  SETVI weed control rating: 35
Setaria viridis; 0.060 kg/ha
  SETVI weed control rating: 85
Setaria viridis; 0.120 kg/ha
  SETVI weed control rating: 93
Setaria viridis; 0.240 kg/ha
  SETVI weed control rating: 100
Apera spica-venti; 0.030 kg/ha
  APESV weed control rating: 100
Apera spica-venti; 0.060 kg/ha
  APESV weed control rating: 100
Apera spica-venti; 0.120 kg/ha
  APESV weed control rating: 100
Apera spica-venti; 0.240 kg/ha
  APESV weed control rating: 100
Poa annua; 0.030 kg/ha
  POAAN weed control rating: 95
Poa annua; 0.060 kg/ha
  POAAN weed control rating: 95
Poa annua; 0.120 kg/ha
  POAAN weed control rating: 100
Poa annua; 0.240 kg/ha
  POAAN weed control rating: 100
Veronica persica; 0.030 kg/ha
  VERPE weed control rating: 70
Veronica persica; 0.060 kg/ha
  VERPE weed control rating: 90
Veronica persica; 0.120 kg/ha
  VERPE weed control rating: 99
Veronica persica; 0.240 kg/ha
  VERPE weed control rating: 100
Alopecurus myosuroides; 0.030 kg/ha
  ALOMY weed control rating: 10
Alopecurus myosuroides; 0.060 kg/ha
  ALOMY weed control rating: 35
Alopecurus myosuroides; 0.120 kg/ha
  ALOMY weed control rating: 65
Alopecurus myosuroides; 0.240 kg/ha
  ALOMY weed control rating: 90
Lolium perenne; 0.030 kg/ha
  LOLPE weed control rating: 75
Lolium perenne; 0.060 kg/ha
  LOLPE weed control rating: 90
Lolium perenne; 0.120 kg/ha
  LOLPE weed control rating: 97
Lolium perenne; 0.240 kg/ha
  LOLPE weed control rating: 99
Lamium purpureum; 0.030 kg/ha
  LAMPU weed control rating: 30
Lamium purpureum; 0.060 kg/ha
  LAMPU weed control rating: 90
Lamium purpureum; 0.120 kg/ha
  LAMPU weed control rating: 93
Lamium purpureum; 0.240 kg/ha
  LAMPU weed control rating: 100
wheat
  maximum tolerated dose in wheat / dose at which sufficiently selective in wheat: 240 g/ha
VIOAR; 0.030 kg/ha
  VIOAR weed control rating: 98
VIOAR; 0.060 kg/ha
  VIOAR weed control rating: 99
VIOAR; 0.120 kg/ha
  VIOAR weed control rating: 99
VIOAR; 0.240 kg/ha
  VIOAR weed control rating: 99
PAPRH; 0.030 kg/ha
  PAPRH weed control rating: 95
PAPRH; 0.060 kg/ha
  PAPRH weed control rating: 100
PAPRH; 0.120 kg/ha
  PAPRH weed control rating: 100
PAPRH; 0.240 kg/ha
  PAPRH weed control rating: 100
[1]; 0.030 kg/ha
  TRZAWK rating (Selectivity): 2
[1]; 0.060 kg/ha
  TRZAWK rating (Selectivity): 5
[1]; 0.120 kg/ha
  TRZAWK rating (Selectivity): 5
[1]; 0.240 kg/ha
  TRZAWK rating (Selectivity): 18
[2]; 0.030 kg/ha
  TRZAWM rating (Selectivity): 2
[2]; 0.060 kg/ha
  TRZAWM rating (Selectivity): 5
[2]; 0.120 kg/ha
  TRZAWM rating (Selectivity): 5
[2]; 0.240 kg/ha
  TRZAWM rating (Selectivity): 10

## COc1cnc(-c2ccc(C(F)(F)F)cc2)nc1Oc1ccnc(Cl)c1 [REF-8]
Stellaria media; 0.030 kg/ha
  STEME weed control rating: 35
Stellaria media; 0.060 kg/ha
  STEME weed control rating: 85
Stellaria media; 0.120 kg/ha
  STEME weed control rating: 100
Stellaria media; 0.240 kg/ha
  STEME weed control rating: 100
Galium aparine; 0.030 kg/ha
  GALAP weed control rating: 3
Galium aparine; 0.120 kg/ha
  GALAP weed control rating: 70
Galium aparine; 0.240 kg/ha
  GALAP weed control rating: 70
Matricaria inodora; 0.030 kg/ha
  MATIN weed control rating: 95
Matricaria inodora; 0.060 kg/ha
  MATIN weed control rating: 100
Matricaria inodora; 0.120 kg/ha
  MATIN weed control rating: 100
Matricaria inodora; 0.240 kg/ha
  MATIN weed control rating: 100
Setaria viridis; 0.030 kg/ha
  SETVI weed control rating: 60
Setaria viridis; 0.060 kg/ha
  SETVI weed control rating: 90
Setaria viridis; 0.120 kg/ha
  SETVI weed control rating: 90
Setaria viridis; 0.240 kg/ha
  SETVI weed control rating: 100
Apera spica-venti; 0.030 kg/ha
  APESV weed control rating: 100
Apera spica-venti; 0.060 kg/ha
  APESV weed control rating: 100
Apera spica-venti; 0.120 kg/ha
  APESV weed control rating: 100
Apera spica-venti; 0.240 kg/ha
  APESV weed control rating: 100
Poa annua; 0.030 kg/ha
  POAAN weed control rating: 100
Poa annua; 0.060 kg/ha
  POAAN weed control rating: 100
Poa annua; 0.120 kg/ha
  POAAN weed control rating: 100
Poa annua; 0.240 kg/ha
  POAAN weed control rating: 100
Veronica persica; 0.030 kg/ha
  VERPE weed control rating: 100
Veronica persica; 0.060 kg/ha
  VERPE weed control rating: 100
Veronica persica; 0.120 kg/ha
  VERPE weed control rating: 100
Veronica persica; 0.240 kg/ha
  VERPE weed control rating: 100
Alopecurus myosuroides; 0.030 kg/ha
  ALOMY weed control rating: 15
Alopecurus myosuroides; 0.060 kg/ha
  ALOMY weed control rating: 35
Alopecurus myosuroides; 0.120 kg/ha
  ALOMY weed control rating: 70
Alopecurus myosuroides; 0.240 kg/ha
  ALOMY weed control rating: 90
Lolium perenne; 0.030 kg/ha
  LOLPE weed control rating: 60
Lolium perenne; 0.060 kg/ha
  LOLPE weed control rating: 97
Lolium perenne; 0.120 kg/ha
  LOLPE weed control rating: 99
Lolium perenne; 0.240 kg/ha
  LOLPE weed control rating: 99
Lamium purpureum; 0.030 kg/ha
  LAMPU weed control rating: 98
Lamium purpureum; 0.060 kg/ha
  LAMPU weed control rating: 100
Lamium purpureum; 0.120 kg/ha
  LAMPU weed control rating: 100
Lamium purpureum; 0.240 kg/ha
  LAMPU weed control rating: 100
wheat
  maximum tolerated dose in wheat / dose at which sufficiently selective in wheat: 120 g/ha
VIOAR; 0.030 kg/ha
  VIOAR weed control rating: 99
VIOAR; 0.060 kg/ha
  VIOAR weed control rating: 99
VIOAR; 0.120 kg/ha
  VIOAR weed control rating: 100
VIOAR; 0.240 kg/ha
  VIOAR weed control rating: 100
PAPRH; 0.030 kg/ha
  PAPRH weed control rating: 100
PAPRH; 0.060 kg/ha
  PAPRH weed control rating: 100
PAPRH; 0.120 kg/ha
  PAPRH weed control rating: 100
PAPRH; 0.240 kg/ha
  PAPRH weed control rating: 100
[1]; 0.030 kg/ha
  TRZAWK rating (Selectivity): 1
[1]; 0.060 kg/ha
  TRZAWK rating (Selectivity): 5
[1]; 0.120 kg/ha
  TRZAWK rating (Selectivity): 12
[1]; 0.240 kg/ha
  TRZAWK rating (Selectivity): 18
[2]; 0.030 kg/ha
  TRZAWM rating (Selectivity): 1
[2]; 0.060 kg/ha
  TRZAWM rating (Selectivity): 3
[2]; 0.120 kg/ha
  TRZAWM rating (Selectivity): 15
[2]; 0.240 kg/ha
  TRZAWM rating (Selectivity): 18
